Among the data in article PMC12040169 (PLOS Biology, 2025) are viability values, retold here.

Molecules are shown by their SMILES.

This series is described as follows: in vitro. The conditions noted are these: human, hela cells, % viability.
As usually defined, the viability is a read-out of living cells in per cent, often relative to untreated cells. For the molecule `Cc1cc(NC(=O)c2ccc(OC(C)C)cc2)no1` [CBK287575], the viability at 28.5 h, 10 µM worked out at 94.4%.

For `Cc1cc(C)cc(NC(=O)CSc2ncccn2)c1` [CBK287577], the viability at 28.5 h, 10 µM worked out at 97.8%.

Consider `COc1cc(C)ccc1S(=O)(=O)n1cnc2cc(C)c(C)cc21` [CBK287580], for which the viability at 28.5 h, 10 µM turned out to be 61.3%.

In the case of `C=C(C)Cn1c(-c2ccc(N)cc2)nc2ccccc21` [CBK287581], the viability at 28.5 h, 10 µM amounted to 89.2%.

With `N#Cc1c(NC(=O)c2cccnc2)sc2c1CCCCC2` [CBK287584], the viability at 28.5 h, 10 µM came to 98.6%.

For the molecule `O=C(CC1Sc2ccccc2NC1=O)Nc1ccc(C(F)(F)F)cc1` (centres unmarked) [CBK287585], the viability at 28.5 h, 10 µM turned out to be 88.6%.

`COc1ccc(C(=O)Nc2nc(-c3ccc4c(c3)OCCO4)cs2)cc1OC` [CBK287588]: the viability at 28.5 h, 10 µM is 92.5%.

Turning to `COc1cccc(-c2nnc(NC(=O)c3ccc4c(c3)OCCO4)o2)c1` [CBK287591], the viability at 28.5 h, 10 µM is 108%.

For `CC(C)C(=O)Nc1nnc(-c2ccc(Cl)cc2)o1` [CBK287593], the viability at 28.5 h, 10 µM was 94%.

For the molecule `O=C(Nc1nnc(-c2ccccc2)o1)c1nc2ccccc2s1` [CBK287595], the viability at 28.5 h, 10 µM was found to be 91.2%.

Consider `O=C(Nc1nnc(-c2ccccc2)o1)C1COc2ccccc2O1` (centres unmarked) [CBK287596], for which the viability at 28.5 h, 10 µM turned out to be 103%.

With `O=C(Cc1ccccc1)Nc1nnc(-c2ccccc2)o1` [CBK287597], the viability at 28.5 h, 10 µM was determined as 95.4%.

Consider `O=C(Nc1nnc(-c2cccs2)o1)c1ccc(Cl)cc1` [CBK287600], for which the viability at 28.5 h, 10 µM amounted to 96.4%.

Consider `Cc1ccc(Cn2ncc3c(N4CCCC4)ncnc32)cc1` [CBK287601], for which the viability at 28.5 h, 10 µM turned out to be 72.5%.

In the case of `CC(=O)Nc1nc2ccc(S(=O)(=O)N3CCCC3)cc2s1` [CBK287604], the viability at 28.5 h, 10 µM came out at 98.8%.

Consider `CCn1c(=N)c(C(=O)NCCOC)cc2c(=O)n3ccccc3nc21` [CBK287605], for which the viability at 28.5 h, 10 µM amounted to 89.5%.

As for `CCCSc1nc2c(c(=O)[nH]1)C(c1ccncc1)C1=C(CCCC1=O)N2` (centres unmarked) [CBK287606], the viability at 28.5 h, 10 µM worked out at 106%.

Take `Cn1c(SCC(=O)NCCCN2CCOCC2)nc2ccccc2c1=O` [CBK287607]: the viability at 28.5 h, 10 µM turned out to be 109%.

For the molecule `Nc1ccc(C(=O)Nc2nc3ccccc3s2)cc1` [CBK287608], the viability at 28.5 h, 10 µM was found to be 95.9%.

Regarding `Cc1c(C(=O)O)sc2nc(SCC(=O)NCc3ccccc3)[nH]c(=O)c12` [CBK287609], the viability at 28.5 h, 10 µM came out at 94.2%.

Turning to `Oc1c(C(c2ccccc2)N2CCc3ccccc3C2)sc2ncnn12` (centres unmarked) [CBK287612], the viability at 28.5 h, 10 µM amounted to 99.9%.

In the case of `CCSc1nc(N)c(NC(=O)c2ccco2)c(=O)[nH]1` [CBK287613], the viability at 28.5 h, 10 µM was determined as 92.4%.

Consider `COc1ccc(C(=O)Nc2nc3c(OC)ccc(C)c3s2)cc1` [CBK287615], for which the viability at 28.5 h, 10 µM amounted to 110%.

With `CCC(=O)Nc1nc2c(OC)ccc(C)c2s1` [CBK287616], the viability at 28.5 h, 10 µM turned out to be 110%.

For the molecule `CC(=O)Nc1nc2cc3c(cc2s1)OCCO3` [CBK287618], the viability at 28.5 h, 10 µM turned out to be 96.2%.

In the case of `O=C(Nc1nc2c(Br)cccc2s1)c1nc2ccccc2s1` [CBK287619], the viability at 28.5 h, 10 µM came out at 92.2%.

Consider `Cc1cc(NC(=O)CN2CC(C)CC(C)C2)nc2c1c(=O)oc1ccccc12` (centres unmarked) [CBK287620], for which the viability at 28.5 h, 10 µM amounted to 108%.

With `O=C(CSc1ccc2nnc(-c3cccnc3)n2n1)c1ccccc1` [CBK287624], the viability at 28.5 h, 10 µM stood at 100%.

As for `c1ccc(CSc2ccc3nnc(-c4ccncc4)n3n2)cc1` [CBK287625], the viability at 28.5 h, 10 µM worked out at 94.4%.

With `NC(=O)CSc1nnc(NC(=O)c2ccccc2Cl)s1` [CBK287629], the viability at 28.5 h, 10 µM worked out at 89.9%.

Regarding `Cc1ccc(S(=O)(=O)NCCc2cn3ccc(C)cc3n2)cc1` [CBK287630], the viability at 28.5 h, 10 µM came out at 103%.

Take `Cc1cccc(-c2nc(C(N)=O)c3[nH]c(=O)n(-c4ccc(F)cc4)c3n2)c1` [CBK287632]: the viability at 28.5 h, 10 µM worked out at 111%.

Consider `CNC(=O)CSc1ncnc2c1cnn2-c1ccc(F)cc1` [CBK287633], for which the viability at 28.5 h, 10 µM came out at 94.4%.

Take `COc1ccc(-c2ccc(SCC(=O)Nc3cc(C)on3)nn2)cc1` [CBK287634]: the viability at 28.5 h, 10 µM is 88.7%.

In the case of `O=C(CSc1ccc(-n2ccnc2)nn1)Nc1cccnc1` [CBK287635], the viability at 28.5 h, 10 µM amounted to 97.6%.

On to `COc1ccc(OC)c(NC(=O)CSc2ccc(-c3ccncc3)nn2)c1` [CBK287637], for which the viability at 28.5 h, 10 µM was determined as 86.6%.

For the molecule `Cc1ccc2nc(N(CCCN(C)C)C(=O)c3ccco3)sc2c1` [CBK287639], the viability at 28.5 h, 10 µM was 114%.

For the molecule `CN(C)CCCN(C(=O)c1ccccc1)c1nc2ccc(F)cc2s1` [CBK287640], the viability at 28.5 h, 10 µM stood at 97.4%.

As for `COc1ccc2sc(Nc3ccc(F)cc3)nc2c1` [CBK287641], the viability at 28.5 h, 10 µM was 95.3%.

Regarding `COc1ccc(N2CC(NC(=O)Nc3ccccn3)CC2=O)cc1` (centres unmarked) [CBK287642], the viability at 28.5 h, 10 µM is 96.9%.

On to `CCN1CCc2nc(NC(=O)c3ccc(Cl)cc3)sc2C1` [CBK287644], for which the viability at 28.5 h, 10 µM is 86.3%.

Take `Cc1cc(N)n(-c2nc3c(cnn3-c3ccc(C)c(C)c3)c(=O)[nH]2)n1` [CBK287646]: the viability at 28.5 h, 10 µM worked out at 97.8%.

Take `Cc1ccccc1-n1ncc2c(N3CCCC3)ncnc21` [CBK287648]: the viability at 28.5 h, 10 µM stood at 99.2%.

With `COc1ccc(NC(=O)Cc2csc(NC(C)=O)n2)cc1` [CBK287650], the viability at 28.5 h, 10 µM was 93.3%.

`Cc1ccc(-n2c(=O)[nH]c3c(C(=O)Nc4ccccc4)cn(C)c3c2=O)cc1` [CBK287651]: the viability at 28.5 h, 10 µM stood at 93.9%.

Consider `COc1ccc(C(=O)c2oc3cc(NC(=O)c4cccnc4)ccc3c2C)cc1` [CBK287652], for which the viability at 28.5 h, 10 µM stood at 85.1%.

As for `Cc1cc(O)nc(-n2nc(C)cc2NC(=O)c2ccccc2)n1` [CBK287653], the viability at 28.5 h, 10 µM worked out at 101%.

As for `Cc1cc(=O)[nH]c(-n2nc(C)cc2NC(=O)c2ccccc2C)n1` [CBK287654], the viability at 28.5 h, 10 µM came out at 92.5%.

On to `CS(=O)(=O)N1CCC2(CC1)NC(=O)N(Cc1ccccc1)C2=O` [CBK287656], for which the viability at 28.5 h, 10 µM came out at 100%.

Regarding `COCC(=O)Nc1ccc2c(c1)NC(=O)C(C)(C)CO2` [CBK287658], the viability at 28.5 h, 10 µM is 89%.

As to `COc1cccc2cc(C(=O)Nc3cccc(C)n3)oc12` [CBK287659], the viability at 28.5 h, 10 µM was determined as 94.5%.

Turning to `Cc1ccc(OCC(=O)Nc2ccc3c(c2)C(=O)Nc2ccccc2O3)cc1` [CBK287660], the viability at 28.5 h, 10 µM was determined as 88.2%.

For `Cn1c(SCC(=O)c2ccc(F)cc2)ncc(C(=O)Nc2ccccc2)c1=O` [CBK287672], the viability at 28.5 h, 10 µM amounted to 111%.

On to `Cc1ccc(NC(=O)c2cnc(SCc3ccccn3)n(C)c2=O)cc1` [CBK287673], for which the viability at 28.5 h, 10 µM came to 92.9%.

As to `Cc1ccc(NC(=O)CSc2nc3[nH]ncc3c(=O)[nH]2)cc1` [CBK287675], the viability at 28.5 h, 10 µM was found to be 93.5%.

With `O=C(CSc1nnc2ccc(-c3ccccc3)nn12)Nc1ccc(F)cc1` [CBK287676], the viability at 28.5 h, 10 µM worked out at 91.5%.

Regarding `O=C(CSc1nnc2ccc(-c3ccccc3)nn12)NCc1ccccc1` [CBK287677], the viability at 28.5 h, 10 µM is 67.6%.

As to `c1ccc(CSc2nnc3ccc(-c4ccncc4)nn23)cc1` [CBK287681], the viability at 28.5 h, 10 µM was 86.5%.

Regarding `Cc1ccc(C(=O)Nc2cccc(-c3ccc4nnc(C)n4n3)c2)cc1` [CBK287683], the viability at 28.5 h, 10 µM worked out at 82.8%.

Turning to `CCCc1cc(=O)[nH]c2nnc(SCC(=O)NC)n12` [CBK287685], the viability at 28.5 h, 10 µM is 95.3%.

`Cc1c(C)n2c(SCC(=O)N3CCCC3)nnc2[nH]c1=O` [CBK287686]: the viability at 28.5 h, 10 µM was 99.4%.

Turning to `CNC(=O)CSc1nnc2[nH]c(=O)c(C)c(C)n12` [CBK287687], the viability at 28.5 h, 10 µM came to 108%.

For the molecule `Cc1ccccc1-n1ncc2c(=O)n(CC(=O)N3CCCCC3)cnc21` [CBK287688], the viability at 28.5 h, 10 µM turned out to be 108%.

Take `Cc1ccccc1-n1ncc2c(=O)n(CC(=O)Nc3ccccc3)cnc21` [CBK287689]: the viability at 28.5 h, 10 µM was 98.4%.

On to `CC(=O)Cn1cnc2c(cnn2-c2cccc(Cl)c2)c1=O` [CBK287692], for which the viability at 28.5 h, 10 µM came to 84.4%.

For `Cc1cccc(-n2ncc3c(=O)n(CC(=O)Nc4ccccc4)cnc32)c1C` [CBK287693], the viability at 28.5 h, 10 µM was found to be 95.1%.

As for `COc1cc(-c2nnc(NC(C)=O)o2)cc(OC)c1OC` [CBK287698], the viability at 28.5 h, 10 µM is 95.2%.

Regarding `COc1cc2nc(NC(=O)c3ccccc3)sc2cc1OC` [CBK287701], the viability at 28.5 h, 10 µM amounted to 82.3%.

`O=c1[nH]cc(S(=O)(=O)Nc2ccccc2)c(=O)[nH]1` [CBK287703]: the viability at 28.5 h, 10 µM was found to be 93.5%.

For the molecule `CCn1c2c(c(=O)[nH]c1=O)C(c1ccccc1)C1=C(COC1=O)N2` (centres unmarked) [CBK287704], the viability at 28.5 h, 10 µM was 95.6%.

For `Cc1ccc(S(=O)(=O)CC(=O)Nc2nc3ccc(C)cc3s2)cc1` [CBK287705], the viability at 28.5 h, 10 µM came out at 89.8%.

On to `Cc1ccc(S(=O)(=O)CCC(=O)Nc2ccc3sc(C)nc3c2)cc1` [CBK287706], for which the viability at 28.5 h, 10 µM was found to be 99.3%.

For `COc1ccccc1CNC(=O)c1cnc2sc(C)cn2c1=O` [CBK287708], the viability at 28.5 h, 10 µM came out at 104%.

Turning to `COc1ccc(CCNC(=O)c2cnc3sc(C)cn3c2=O)cc1OC` [CBK287709], the viability at 28.5 h, 10 µM amounted to 104%.

Consider `Cc1cn2c(=O)c(C(=O)Nc3ccccc3C)cnc2s1` [CBK287710], for which the viability at 28.5 h, 10 µM is 94.1%.

For `Cc1cn2c(=O)c(C(=O)Nc3ccc(F)c(C(F)(F)F)c3)cnc2s1` [CBK287713], the viability at 28.5 h, 10 µM amounted to 77.9%.

In the case of `COc1ccc(C)cc1NC(=O)c1cnc2sc(C)cn2c1=O` [CBK287714], the viability at 28.5 h, 10 µM came to 105%.

`CC(=O)Nc1cccc(NC(=O)c2cnc3sc(C)cn3c2=O)c1` [CBK287715]: the viability at 28.5 h, 10 µM is 92%.

As to `Cc1ccc(-n2c(=O)[nH]c3c(C(N)=O)nc(-c4ccccc4)nc32)cc1C` [CBK287718], the viability at 28.5 h, 10 µM was determined as 84.7%.

With `Cc1cc(SCc2ccc(Cl)cc2)nc(=O)[nH]1` [CBK287719], the viability at 28.5 h, 10 µM was 90.8%.

In the case of `O=C(CN1CCC(c2nc3ccccc3[nH]2)CC1)Nc1ccc(F)cc1` [CBK287720], the viability at 28.5 h, 10 µM amounted to 90%.

As to `CCS(=O)(=O)c1ccc(C(=O)Nc2nc3c(F)cc(F)cc3s2)cc1` [CBK287727], the viability at 28.5 h, 10 µM is 106%.

For `O=C(NCc1cccnc1)C(=O)Nc1cc2c3c(c1)CCC(=O)N3CCC2` [CBK287728], the viability at 28.5 h, 10 µM was 92%.
